{"source": "patent US20060052345A1", "about": "“Quinazolinone compounds as calcilytics” (NPS Pharmaceuticals, Inc., priority 2002, published 2006)", "key": {"[1]": {"assay": "Plasma levels of compound 17 after intravenous injection in normal rats (LC-MS/MS)", "assay_type": "in vivo, rat", "settings": "3 or 10 μmol/kg intravenous injection, normal conscious male Sprague-Dawley rats, FIG. 1", "description": "(§1) 2-(2-Hydroxy-phenyl)-3-phenethyl-3H-quinazolin-4-one (compound 17) (3 or 10 μmol/kg) or vehicle was administered by intravenous injection over about 15 seconds to normal conscious male Sprague-Dawley rats with chronic indwelling arterial and venous catheters. Arterial blood samples were collected immediately before, and at 1, 5, 10, and 30 min after the start of the injection for measurement of the levels of parathyroid hormone (PTH), ionized calcium (Ca^2+) and compound 17 in plasma. PTH was measured using a specific rat PTH (1-84) ELISA (Immutopics, San Clemente, Calif.) and compound 17 was quantified by an LC-MS/MS method. Positive ions were generated by turbo ionspray and were subsequently fragmented by collision-induced dissociation, so that compound 17 could be detected by selected-reaction monitoring."}, "ionized calcium (Ca^2+)": {"system": "ionized calcium (Ca^2+)", "assay": "Plasma ionized calcium levels after intravenous injection in normal rats", "assay_type": "in vivo, rat", "settings": "3 or 10 μmol/kg intravenous injection, normal conscious male Sprague-Dawley rats, up to 30 min (not shown)", "description": "as §1"}, "[2]": {"system": "parathyroid hormone (PTH)", "assay": "Plasma PTH levels after intravenous injection in normal rats (rat PTH (1-84) ELISA)", "assay_type": "in vivo", "settings": "3 or 10 μmol/kg intravenous injection, normal conscious male Sprague-Dawley rats, FIG. 2", "description": "as §1"}}, "data": [{"smiles": "O=c1c2ccccc2nc(-c2ccccc2O)n1CCc1ccccc1", "note": "[compound 17, 2-(2-Hydroxy-phenyl)-3-phenethyl-3H-quinazolin-4-one]", "values": [{"measurement": "course of plasma levels of compound after the maximum", "setting": "[1]", "result": "declined rapidly during the next 10-30 min"}, {"measurement": "time after injection at which plasma levels of compound were maximal", "setting": "[1]", "result": 1, "unit": "min"}, {"measurement": "changes in plasma Ca^2+ levels", "setting": "ionized calcium (Ca^2+)", "result": "no consistent changes"}, {"measurement": "effect on plasma PTH levels", "setting": "[2]", "result": "rapid, but transient dose-related increase"}, {"measurement": "time after injection at which plasma PTH levels were maximal", "setting": "[2]", "result": 1, "unit": "min"}, {"measurement": "time after injection by which plasma PTH levels had returned to pre-dose levels", "setting": "[2]", "result": "≤ 10", "unit": "min"}]}]}
